In paper PMC6813931, “Choline Kinase Emerges as a Promising Drug Target in Gram-Positive Bacteria” (Frontiers in Microbiology, 2019):

How the values were obtained:
[1] = biological target: T1, sChoK (S. pneumoniae isoform of choline kinase, LicA) (Streptococcus pneumoniae, UniProt Q8DPI4); assay: sChoK activity inhibition (authors' earlier work); type: biochemical; conditions: authors' own earlier result (Zimmerman and Ibrahim 2017), restated here; cited from earlier work
T1 construct: gene pck; ChoK activity measured in cell extracts
T1 sequence (Q8DPI4 1-289): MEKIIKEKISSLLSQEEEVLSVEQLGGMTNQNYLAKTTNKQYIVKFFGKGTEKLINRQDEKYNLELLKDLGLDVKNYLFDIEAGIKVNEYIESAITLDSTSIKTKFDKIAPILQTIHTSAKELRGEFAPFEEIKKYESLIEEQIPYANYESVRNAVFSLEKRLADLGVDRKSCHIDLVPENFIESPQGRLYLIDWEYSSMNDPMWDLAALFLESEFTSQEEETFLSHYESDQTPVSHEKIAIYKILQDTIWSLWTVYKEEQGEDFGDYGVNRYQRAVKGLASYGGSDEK
Description: sChoK activity inhibition (authors' earlier work) on sChoK (S. pneumoniae isoform of choline kinase, LicA)

[2] = biological target: T1, sChoK (S. pneumoniae isoform of choline kinase, LicA); assay: colorimetric ChoK activity assay in cell extracts; type: biochemical
Description: colorimetric ChoK activity assay in cell extracts on sChoK (S. pneumoniae isoform of choline kinase, LicA)

**Q.** Which IC50 [1] does the source give for `C[N+]1(C)CCOC(O)(c2ccc(-c3ccc(C4(O)C[N+](C)(C)CCO4)cc3)cc2)C1` (stereo not drawn) [HC-3] here?
**A.** The IC50 was > 2700 µM.

**Q.** With `CN(c1ccc(Cl)cc1)c1cc[n+](Cc2ccc(-c3ccc(C[n+]4ccc(N(C)c5ccc(Cl)cc5)c5ccccc54)cc3)cc2)c2ccccc12` [RSM-932A] as the molecule, how does the IC50 [2] read?
**A.** Its IC50 is 0.5 µM.

**Q.** With `CN(C)c1cc[n+](Cc2ccc(CCCCc3ccc(C[n+]4ccc(N(C)C)cc4)cc3)cc2)cc1` [MN58b] as the molecule, how does the IC50 [2] read?
**A.** Its IC50 is 197 µM.
